Data taken from US4310682A, “Halo-salicylanilide” (priority 1979, dated 1982).

Experiments:
Type in all cases: cell-based
[1] = test system: Escherichia coli NIHJ JC-2; assay: MIC, agar medium containing the compound; settings: bacterium No. 1, 37° C., 4 hours
Description: (§1) In order to test antifungal and bactericidal activity of halo-salicylanilide obtained in above mentioned Examples, following bacteria and fungi are employed.
No. 1 Escherichia coli NIHJ JC-2
(§2) Bacteria No. 1 to No. 4 are respectively cultured in Hart Infusion bouillon medium at 37° C. for 20 hours and resulting medium liquids are employed for said test. Fungi No. 5 to No. 7 are respectively cultured in Sabouraud agar medium and 10^6 cell/ml of cell dispersing liquids obtained from said medium are employed for said test.

[2] = test system: bacteria No. 1 to No. 4 and fungi No. 5 to No. 7; assay: Antifungal and bactericidal activity test, overall assessment of Table 8; settings: referring to Table 8
Description: as §1, §2
Referring now to Table 8, in said Examples the halo-salicylanilides provided have respectively remarkable higher antifungal and bactericidal activity than that of the contrasts proposed and said halo-salicylanilidesare especially effective on bacteria No. 3 and No. 4, and fungi No. 5, No. 6 and No. 7. This testifies that alkyl group of 2'-position of the halo-salicylanilides is significant for the activities of the compound. […] Especially the halo-salicylanilides having fluorine in 5-position are very useful for agricultural medicines.

[3] = test system: Candida albicans ATCC 10259; assay: MIC, Sabouraud agar medium containing the compound; settings: fungus No. 5, 20° C., 14 days
Description: as §1
No. 5 Candida albicans ATCC 10259
as §2

[4] = test system: Candida albicans ATCC 10259; assay: Multiplying state after removal to compound-free medium (scanning electron microscope)
[5] = test system: Aspergillus flavus IFO 8558; assay: MIC, Sabouraud agar medium containing the compound; settings: fungus No. 6, 20° C., 14 days
Description: as §1
No. 6 Aspergillus flavus IFO 8558
as §2

[6] = test system: Bacillus subtilis PCI-219; assay: MIC, agar medium containing the compound; settings: bacterium No. 4, 37° C., 4 hours
Description: as §1
No. 4 Bacillus subtilis PCI-219
as §2

[7] = test system: Trichophyton rubrum IFO 9185; assay: MIC, Sabouraud agar medium containing the compound; settings: fungus No. 7, 20° C., 14 days
Description: as §1
No. 7 Trichophyton rubrum IFO 9185
as §2

[8] = test system: Staphylococcus aureus FDA-209-P; assay: MIC, agar medium containing the compound; settings: bacterium No. 3, 37° C., 4 hours
Description: as §1
No. 3 Staphylococcus aureus FDA-209-P
as §2

Cc1cc(Cl)ccc1NC(=O)c1cc(I)ccc1O [compound 3, 5-iodo-2'-methyl-4'-chloro salicylanilide]
MIC (Minimum Inhibitory Concentration) [1]: > 100 | antifungal and bactericidal activity (assessment in words) [2]: remarkable antifungal and bactericidal activity | MIC (Minimum Inhibitory Concentration) [3]: 6.3 | multiplying state of the fungi after removal to culture medium without the compound ([4]; first cultured in medium containing the compound, then removed, FIG. 1 and FIG. 2): does not start to multiply | destruction of the cell membranes of the fungi ([4]; scanning electron microscope, FIG. 2): destruction of the cell membranes of the fungi is observed | MIC (Minimum Inhibitory Concentration) [5]: 6.3 | MIC (Minimum Inhibitory Concentration) [6]: 1.5 | MIC (Minimum Inhibitory Concentration) [7]: 6.3 | MIC (Minimum Inhibitory Concentration) [8]: 0.75
